In US20260098061A1, “EPHA2-BINDING PENDING PEPTIDE AND COMPOSITION COMPRISING SAME” (PeptiDream Inc., priority 2022, published 2026):
Numbered stars: 1 amine (or outer) side, 2 acyl side, 3 side chain; on linkers, the order of the positions; unused ones are H or OH. Bridge positions count the residues as written; N and C are the ends. Square brackets hold non-standard residues; d marks the D form. Side chains are listed from the residue outwards. Peptide text beside a SMILES is read from it. * marks the point of attachment. Trp(1-Me,7-Cl) = Cn1cc(C[C@H](N)C(=O)O)c2cccc(Cl)c21; dPhe(3-CONH2) = NC(=O)c1cccc(C[C@@H](N)C(=O)O)c1; NMePhe(4-Cl) = CN[C@@H](Cc1ccc(Cl)cc1)C(=O)O; Piperazinyl(4-CH2COOH) = O=C(O)CN1CCN(*)CC1; Trp(1-Me) = Cn1cc(C[C@H](N)C(=O)O)c2ccccc21; NMe3Pal = CN[C@@H](Cc1cccnc1)C(=O)O; NMeF = CN[C@@H](Cc1ccccc1)C(=O)O; Gly(cBu) = N[C@H](C(=O)O)C1CCC1; Aad = N[C@@H](CCCC(=O)O)C(=O)O; NMeN = CN[C@@H](CC(N)=O)C(=O)O; Chg = N[C@H](C(=O)O)C1CCCCC1; CO = O=C([*:1])[*:2]

Molecular target: T1, Recombinant Human EphA2 Fc Protein (Homo sapiens, UniProt P29317)
T1 construct: purchased Elabscience
Assay: SPR interaction analysis (Biacore T200), kinetics of peptides against EphA2
Format: binding
Details: Recombinant Human EphA2 Fc Protein captured by Human Antibody Capture kit; single-cycle kinetics; 25° C.; HBS-P+ buffer with 1% DMSO
Summary of the method: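 On a Biacore T200 at 25° C, Fc-tagged human EphA2 was captured via anti-human antibody; peptides ran as five serial dilutions in HBS-P+ pH 7.4 with 1% DMSO by single-cycle kinetics. Baseline-subtracted data fitted for ka and kd, from which KD was derived.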

Kd [nM] | SMILES
< 1 | CNC(=O)C[C@@H]1NC(=O)[C@H](C2CCCCC2)NC(=O)[C@H](CC(N)=O)NC(=O)[C@H](Cc2cccnc2)N(C)C(=O)[C@@H](C)NC(=O)CSC[C@@H](C(N)=O)NC(=O)[C@H](CCCC(N)=O)NC(=O)[C@H]([C@@H](C)O)NC(=O)[C@H](Cc2cn(C)c3ccccc23)NC(=O)[C@H](CCCCNC(=O)N2CCN(CC(=O)O)CC2)NC(=O)[C@H](Cc2cn(C)c3ccccc23)NC(=O)[C@H](Cc2ccccc2)N(C)C1=O [PDC_EphA2-00018536, da-Me3Py-N-Chg-Nmm-MeF-W1Me-KCOpipzaa-W1Me-T-Hgn-C-NH2] ({CH2CO}-[dA][NMe3Pal]N[Chg]D(NHMe)[NMeF][Trp(1-Me)]K([CO-Piperazinyl(4-CH2COOH)])[Trp(1-Me)]T[Aad](NH2)C-NH2; thioether N-12)
< 1 | C[C@H]1NC(=O)CSC[C@@H](C(N)=O)NC(=O)[C@H](CCCC(N)=O)NC(=O)[C@H]([C@@H](C)O)NC(=O)[C@H](Cc2cn(C)c3ccccc23)NC(=O)[C@H](CCCCNC(=O)N2CCN(CC(=O)O)CC2)NC(=O)[C@H](Cc2cn(C)c3ccccc23)NC(=O)[C@H](Cc2ccccc2)N(C)C(=O)[C@H](CC(=O)N(C)C)NC(=O)[C@H](C2CCCCC2)NC(=O)[C@H](CC(N)=O)NC(=O)[C@H](Cc2cccnc2)N(C)C1=O [PDC_EphA2-00018537, da-Me3Py-N-Chg-Ndm-MeF-W1Me-KCOpipzaa-W1Me-T-Hgn-C-NH2] ({CH2CO}-[dA][NMe3Pal]N[Chg]D(NMe2)[NMeF][Trp(1-Me)]K([CO-Piperazinyl(4-CH2COOH)])[Trp(1-Me)]T[Aad](NH2)C-NH2; thioether N-12)
< 1 | C[C@H]1NC(=O)CSC[C@@H](C(N)=O)NC(=O)[C@H](CCCC(N)=O)NC(=O)[C@H]([C@@H](C)O)NC(=O)[C@H](Cc2cn(C)c3ccccc23)NC(=O)[C@H](CCCCNC(=O)N2CCN(CC(=O)O)CC2)NC(=O)[C@H](Cc2cn(C)c3ccccc23)NC(=O)[C@H](Cc2ccc(Cl)cc2)N(C)C(=O)[C@H](CCCC(N)=O)NC(=O)[C@H](C2CCCCC2)NC(=O)[C@H](CC(N)=O)NC(=O)[C@H](Cc2cccnc2)N(C)C1=O [PDC_EphA2-00018538, da-Me3Py-N-Chg-Hgn-MeF4C-W1Me-KCOpipzaa-W1Me-T-Hgn-C-NH2] ({CH2CO}-[dA][NMe3Pal]N[Chg][Aad](NH2)[NMePhe(4-Cl)][Trp(1-Me)]K([CO-Piperazinyl(4-CH2COOH)])[Trp(1-Me)]T[Aad](NH2)C-NH2; thioether N-12)
< 1 | CNC(=O)C[C@@H]1NC(=O)[C@H]([C@@H](C)O)NC(=O)[C@H](Cc2cn(C)c3ccccc23)NC(=O)[C@H](CCCCNC(=O)N2CCN(CC(=O)O)CC2)NC(=O)[C@H](Cc2cn(C)c3ccccc23)NC(=O)[C@H](Cc2ccccc2)N(C)C(=O)[C@H](CCCC(N)=O)NC(=O)[C@H](C2CCCCC2)NC(=O)[C@H](CC(N)=O)NC(=O)[C@H](Cc2cccnc2)N(C)C(=O)[C@@H](C)NC(=O)CSC[C@@H](C(N)=O)NC1=O [PDC_EphA2-00018539, da-Me3Py-N-Chg-Hgn-MeF-W1Me-KCOpipzaa-W1Me-T-Nmm-C-NH2] ({CH2CO}-[dA][NMe3Pal]N[Chg][Aad](NH2)[NMeF][Trp(1-Me)]K([CO-Piperazinyl(4-CH2COOH)])[Trp(1-Me)]TD(NHMe)C-NH2; thioether N-12)
< 1 | C[C@H]1NC(=O)CSC[C@@H](C(N)=O)NC(=O)[C@H](CC(=O)N(C)C)NC(=O)[C@H]([C@@H](C)O)NC(=O)[C@H](Cc2cn(C)c3ccccc23)NC(=O)[C@H](CCCCNC(=O)N2CCN(CC(=O)O)CC2)NC(=O)[C@H](Cc2cn(C)c3ccccc23)NC(=O)[C@H](Cc2ccccc2)N(C)C(=O)[C@H](CCCC(N)=O)NC(=O)[C@H](C2CCCCC2)NC(=O)[C@H](CC(N)=O)NC(=O)[C@H](Cc2cccnc2)N(C)C1=O [PDC_EphA2-00018540, da-Me3Py-N-Chg-Hgn-MeF-W1Me-KCOpipzaa-W1Me-T-Ndm-C-NH2] ({CH2CO}-[dA][NMe3Pal]N[Chg][Aad](NH2)[NMeF][Trp(1-Me)]K([CO-Piperazinyl(4-CH2COOH)])[Trp(1-Me)]TD(NMe2)C-NH2; thioether N-12)
< 1 | CC(C)[C@@H]1NC(=O)[C@H](Cc2cn(C)c3c(Cl)cccc23)NC(=O)[C@H](CC(N)=O)N(C)C(=O)[C@H](CCCC(N)=O)NC(=O)[C@H](C2CCC2)NC(=O)[C@H](CC(N)=O)NC(=O)[C@H](Cc2ccccc2)N(C)C(=O)[C@@H](Cc2cccc(C(N)=O)c2)NC(=O)CSC[C@@H](C(N)=O)NC(=O)[C@H](CCCC(N)=O)NC(=O)[C@H]([C@@H](C)O)NC(=O)[C@H](Cc2cn(C)c3ccccc23)NC1=O [PDC_EphA2-00019421, df3CON-MeF-N-Cbg-Hgn-MeN-W1Me7Cl-V-W1Me-T-Hgn-C-NH2] ({CH2CO}-[dPhe(3-CONH2)][NMeF]N[Gly(cBu)][Aad](NH2)[NMeN][Trp(1-Me,7-Cl)]V[Trp(1-Me)]T[Aad](NH2)C-NH2; thioether N-12)
< 1 | CC(C)C[C@@H]1NC(=O)[C@H](CC(N)=O)NC(=O)[C@H](Cc2ccccc2)N(C)C(=O)[C@@H](Cc2cccc(C(N)=O)c2)NC(=O)CSC[C@@H](C(N)=O)NC(=O)[C@H](CCCC(N)=O)NC(=O)[C@H]([C@@H](C)O)NC(=O)[C@H](Cc2cn(C)c3ccccc23)NC(=O)[C@H](C(C)C)NC(=O)[C@H](Cc2cn(C)c3c(Cl)cccc23)NC(=O)[C@H](CC(N)=O)N(C)C(=O)[C@H](CCCC(N)=O)NC1=O [PDC_EphA2-00019422, df3CON-MeF-N-L-Hgn-MeN-W1Me7Cl-V-W1Me-T-Hgn-C-NH2] ({CH2CO}-[dPhe(3-CONH2)][NMeF]NL[Aad](NH2)[NMeN][Trp(1-Me,7-Cl)]V[Trp(1-Me)]T[Aad](NH2)C-NH2; thioether N-12)
< 1 | CC(C)C[C@@H]1NC(=O)[C@H](CC(N)=O)NC(=O)[C@H](Cc2ccccc2)N(C)C(=O)[C@@H](Cc2cccc(C(N)=O)c2)NC(=O)CSC[C@@H](C(N)=O)NC(=O)[C@H](CCCC(N)=O)NC(=O)[C@H]([C@@H](C)O)NC(=O)[C@H](Cc2cn(C)c3ccccc23)NC(=O)[C@H](C(C)C)NC(=O)[C@H](Cc2cn(C)c3ccccc23)NC(=O)[C@H](CC(N)=O)N(C)C(=O)[C@H](CCCC(N)=O)NC1=O [PDC_EphA2-00019423, df3CON-MeF-N-L-Hgn-MeN-W1Me-V-W1Me-T-Hgn-C-NH2] ({CH2CO}-[dPhe(3-CONH2)][NMeF]NL[Aad](NH2)[NMeN][Trp(1-Me)]V[Trp(1-Me)]T[Aad](NH2)C-NH2; thioether N-12)
< 1 | CC(C)[C@@H]1NC(=O)[C@H](Cc2cn(C)c3c(Cl)cccc23)NC(=O)[C@H](CC(N)=O)N(C)C(=O)[C@H](CCCC(N)=O)NC(=O)[C@H](C2CCC2)NC(=O)[C@H](CC(N)=O)NC(=O)[C@H](Cc2cccnc2)N(C)C(=O)[C@@H](Cc2cccc(C(N)=O)c2)NC(=O)CSC[C@@H](C(N)=O)NC(=O)[C@H](CCCC(N)=O)NC(=O)[C@H]([C@@H](C)O)NC(=O)[C@H](Cc2cn(C)c3ccccc23)NC1=O [PDC_EphA2-00019424, df3CON-Me3Py-N-Cbg-Hgn-MeN-W1Me7Cl-V-W1Me-T-Hgn-C-NH2] ({CH2CO}-[dPhe(3-CONH2)][NMe3Pal]N[Gly(cBu)][Aad](NH2)[NMeN][Trp(1-Me,7-Cl)]V[Trp(1-Me)]T[Aad](NH2)C-NH2; thioether N-12)
